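These data come from cells grown in 96-well plates and exposed to compound for 48 hours at five concentrations. GI50 = concentration required for 50% inhibition of growth. TGI marks complete inhibition of growth.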
Legend:
Test in all cases: NCI anticancer screen, dose series, 48 h
COLO 205 colon = tested on: COLO 205 colon
HT29 colon = tested on: HT29 colon
MDA-MB-435 = tested on: MDA-MB-435
TK-10 renal = tested on: TK-10 renal
U251 CNS = tested on: U251 CNS
A549 NSCLC = tested on: A549 NSCLC
MCF7 breast = tested on: MCF7 breast
MDA-N = tested on: MDA-N
SR leukemia = tested on: SR leukemia
DLD-1 colon = tested on: DLD-1 colon
DMS 114 small cell lung = tested on: DMS 114 small cell lung
LXFL 529 NSCLC = tested on: LXFL 529 NSCLC

SMILES	TGI (COLO 205 colon)	TGI (HT29 colon)	TGI (MDA-MB-435)	TGI (TK-10 renal)	TGI (U251 CNS)	TGI (A549 NSCLC)	TGI (MCF7 breast)	TGI (MDA-N)	TGI (SR leukemia)	TGI (DLD-1 colon)	TGI (DMS 114 small cell lung)	TGI (LXFL 529 NSCLC)	GI50 (COLO 205 colon)	GI50 (HT29 colon)	GI50 (MCF7 breast)	GI50 (MDA-MB-435)	GI50 (TK-10 renal)	GI50 (U251 CNS)	GI50 (A549 NSCLC)	GI50 (SR leukemia)
N#Cc1c2c(c(Nc3cccc(C(F)(F)F)c3)n3c1nc1ccccc13)CCC2	> 100 µM	> 100 µM	> 100 µM	> 100 µM	> 100 µM															
N/C(=N\S(=O)(=O)c1cccc2nsnc12)Nc1ccc(Cl)cc1		> 100 µM		62.8 µM	77.1 µM	> 100 µM	> 100 µM	> 100 µM	> 100 µM											
CC(C)CCC[C@@H](C)[C@H]1CC[C@H]2[C@@H]3CC[C@H]4C[C@H](N)CC[C@]4(C)[C@H]3CC[C@]12C	56.3 µM	54.3 µM	> 100 µM	37.2 µM	43.8 µM	48.1 µM	68.4 µM	> 100 µM												
O=C1N(c2ccccc2)C2(c3ccccc3)CC3CCCC13S2 (stereo unspecified)	> 100 µM	> 100 µM	> 100 µM	1.84 µM	> 100 µM	> 100 µM	> 100 µM		> 100 µM											
C=CCc1cc(-c2cc(CC=C)c(O)c(CNC)c2)cc(CNC)c1O	33.5 µM	29.1 µM		32.1 µM	28.4 µM	33 µM				29.3 µM	30.4 µM	28.5 µM								
N#CC(c1nc2ccccc2s1)c1ncnc(Cl)c1[N+](=O)[O-] (stereo unspecified)	29.8 µM	34.8 µM	83.2 µM	> 100 µM	95.7 µM	> 100 µM		37.5 µM												
O=S1(=O)C(c2ccccc2)C(N2CCCCC2)C1C1CC2c3ccccc3C1c1ccccc12 (stereo unspecified)	> 100 µM	> 100 µM	> 100 µM	> 100 µM	> 100 µM	> 100 µM	> 100 µM	> 100 µM	> 100 µM											
COc1cc(/C=N/n2c(Cc3ccc(Cl)cc3)n[nH]c2=O)cc(OC)c1OC	> 100 µM	> 100 µM	> 100 µM		> 100 µM	> 100 µM	> 100 µM	> 100 µM												
CC(=O)Nc1ccc(N=C2C(c3ccccc3)=C(SC3=C(c4ccccc4)C(=Nc4ccc(NC(C)=O)cc4)c4ccccc43)c3ccccc32)cc1	> 100 µM	> 100 µM	> 100 µM	> 100 µM	> 100 µM	> 100 µM	> 100 µM	> 100 µM	> 100 µM											
O=C1CS(=O)(=O)C(c2cccc(Oc3ccccc3)c2)N1c1cccc(Cl)c1 (stereo unspecified)	41.1 µM	> 100 µM	65.8 µM	63.1 µM	47.2 µM	> 100 µM	32.4 µM	49.2 µM	41.2 µM											
O=c1cc(-c2ccc(O)cc2)n(C2CC2)c2ccccc12	15.1 µM	9.25 µM	17.5 µM		21.6 µM	18.5 µM	35.5 µM	26.2 µM	> 100 µM											
CCN1C=C/C(=C\C=C/c2cc[n+](CC)c3ccccc23)c2ccccc21	17 µM	13.8 µM	14.2 µM	28.1 µM	13 µM	21.2 µM	20 µM	19.3 µM	9.65 µM											
c1ccc(C2CC(c3cccc(Nc4ccncc4)c3)=NN2c2ccccc2)cc1 (stereo unspecified)	3.86 µM	3.49 µM	3.2 µM	3.6 µM	3.94 µM		3.29 µM						1900 nM	1.69 µM	1610 nM	1.69 µM	1.86 µM	1.87 µM		
Cc1ccc(NP(=O)(Oc2ccccc2)N(CCCl)CCCl)cc1 (stereo unspecified)	> 100 µM	> 100 µM		> 100 µM	> 100 µM	> 100 µM			> 100 µM	> 100 µM	> 100 µM	> 100 µM								
O=C(C[C@H](NC(=O)OCc1ccccc1)C(=O)NC1Cc2ccccc2OC1=O)OCc1ccccc1 (stereo partly specified)	> 100 µM		> 100 µM		> 100 µM		80.6 µM	> 100 µM	> 100 µM											
CCCCCCCCCCCCCCCc1ccc(OCC(O)CO)cc1 (stereo unspecified)	59.3 µM	46.1 µM		> 100 µM	55.9 µM	50.1 µM			> 100 µM	> 100 µM	68.3 µM	68 µM								
Cn1c(-c2cccs2)cc(-c2ccccc2)c1-c1cccs1	> 100 µM	> 100 µM	> 100 µM	> 100 µM	> 100 µM	45.7 µM	> 100 µM	> 100 µM	> 100 µM											
Nc1cc2c(nnn2C2OC(COCc3ccccc3)C(OCc3ccccc3)C2OCc2ccccc2)c(=O)[nH]1 (stereo unspecified)	20.3 µM	41.8 µM	40.4 µM	52.1 µM	> 100 µM	> 100 µM	83.9 µM	34 µM	35.6 µM											
CN(C)c1nc(N(C)C)nc(N(C)CN(C)c2ccc(Cl)cc2)n1		> 100 µM		> 100 µM	> 100 µM	> 100 µM				> 100 µM	> 100 µM	> 100 µM								
CN(c1cc2ncc(=O)[nH]c2cc1NC(N)=NCc1ccc(Cl)cc1)C1CCCCC1	2.55 µM	14.1 µM	12.8 µM	15.2 µM	13.4 µM	18.8 µM	7.52 µM		5.23 µM				1110 nM	5.03 µM	1750 nM	6.34 µM	7.44 µM	5.96 µM	9.11 µM	1490 nM
